From patent US20060165769A1, “Pharmaceutical formulations containing vitamin E TPGS molecules that solubilize lipophilic drugs without significant efflux inhibition, and use of such formulations” (priority 2004, published 2006)

System: Caco-2 monolayers (efflux transport of Rhodamine 123)
Assay: Inhibition Protocol: Rhodamine 123 transport across Caco-2 monolayers in the presence of TPGS analog
Format: cell-based
Conditions: relative to Rhodamine 123 alone, TPGS analog 33 μmolar
Protocol: As used herein, the term “Inhibition Protocol” or “inhibition protocol” refers to the following test. The test is carried out using Caco-2 (C2BBe1 or HTB-37) monolayers which are known to be a good in vitro model for gastrointestinal epithelial cells. The following describes the inhibition protocol: Caco-2 cells, clone C2BBe1, from passages 48-92 are used. Cells are grown to ˜90% confluent in 75 cm^2 T-flasks with Dulbecco's modified Eagle's medium (DMEM) supplemented with 10% fetal bovine serum (FBS) and 1% non-essential amino-acids. Cells are grown at a temperature of ˜37° C. in an atmosphere of ˜85% relative humidity and ˜5% CO2. Cells are seeded on top of Transwell® inserts (pore size 0.4 μm, 1.13 cm^2) at a density of ˜60,000 cells/cm^2. […]
Rhodamine 123 (RHO) transport is assessed in absorptive (apical to basolateral, Ap→BI) and secretory (BI→Ap) directions. […]
Monolayers are agitated using an orbital shaker at ˜100±20 rpm. […] To ensure integrity of the monolayers, TEER values were measured on the day of the experiment and at the end of the experiment.
Apparent permeability (Papp) was calculated according to: Papp=(dQ/dt)*(1/A)*(1/Co)
where A (cm^2) is the nominal surface area of the monolayer and C0 (μg/mL) is the RHO concentration in the donor compartment at t=0. Relative change of Papp(cm/s)was calculated according to the equation: rel. increase/decrease=|(1−Papp(TPGS)/Papp(RHO))*100|. […]

## d-α-tocopheryl polyethylene glycol succinate [TPGS 1000]
  % Decrease, B to A: 73.6%
  % Increase, A to B: 82.5%
